Legend:
morningglory = experiment: Test B pre/postemergence morningglory; type: in vivo, Ipomoea hederacea
Summary of the method: (§1)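 Test chemicals in a non-phytotoxic solvent mixture with surfactant were sprayed preemergence onto planted seeds and postemergence onto plants 2 to 18 cm tall (1- to 4-leaf stage). After twelve to sixteen days in a greenhouse, injury was visually rated against untreated controls from 0 (no effect) to 10 (complete control).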

pigweed = experiment: Test B pre/postemergence pigweed; type: in vivo, Amaranthus retroflexus
Summary of the method: as §1

wild oat [1] = experiment: Test B pre/postemergence wild oat; type: in vivo, Avena fatua
Summary of the method: as §1

winter wheat [2] = experiment: Test E winter wheat; type: in vivo, Triticum aestivum; conditions: Postemergence
Summary of the method: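 Compound formulated with surfactant in a non-phytotoxic solvent (postemergence: young 1- to 4-leaf plants); held in greenhouse approx. 21–28 days; visual assessment against untreated plants.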

blackgrass = experiment: Test E blackgrass; type: in vivo, Alopecurus myosuroides; conditions: Preemergence
green foxtail = experiment: Test E green foxtail; type: in vivo, Setaria viridis; conditions: Preemergence
Italian ryegrass = experiment: Test E Italian ryegrass; type: in vivo, Lolium multiflorum; conditions: Preemergence
winter wheat [3] = experiment: Test E winter wheat; type: in vivo, Triticum aestivum; conditions: Preemergence
wild oat [4] = experiment: Test E wild oat; type: in vivo, Avena fatua; conditions: Preemergence
winter barley = experiment: Test E winter barley; type: in vivo, Hordeum vulgare; conditions: Preemergence
[5] = Preemergence, Rate 62 g/ha, scale of 0 to 10 where 0 is no effect and 10 is complete control
[6] = Preemergence, Rate 250 g/ha, scale of 0 to 10 where 0 is no effect and 10 is complete control
[7] = Preemergence, Rate 500 g/ha, scale of 0 to 10 where 0 is no effect and 10 is complete control
[8] = Rate 125 g/ha, Preemergence, scale of 0 to 10 where 0 is no effect and 10 is complete control
[9] = Rate 500 g/ha, Postemergence, scale 0 to 10, 0 no effect, 10 complete control
[10] = Rate 1000 g/ha, 0 to 100 scale where 0 is no effect and 100 is complete control
[11] = Rate 500 g/ha, 0 to 100 scale where 0 is no effect and 100 is complete control
[12] = Rate 1000 g/ha, 0 to 100 scale, 0 no effect, 100 complete control
[13] = Postemergence, Rate 125 g/ha, scale of 0 to 10 where 0 is no effect and 10 is complete control
[14] = Preemergence, Rate 62 g/ha, scale 0 to 10 (0 no effect, 10 complete control)
[15] = Preemergence, Rate 125 g/ha, 0 is no effect, 10 is complete control
[16] = Preemergence, Rate 250 g/ha, scale 0 to 10, 0 is no effect, 10 is complete control
[17] = Preemergence, Rate 500 g/ha, scale 0 to 10 (0 no effect, 10 complete control)
[18] = Rate 62 g/ha, Postemergence, scale of 0 to 10 where 0 is no effect and 10 is complete control
[19] = Rate 250 g/ha, Postemergence, scale 0 to 10, 0 is no effect, 10 is complete control

Structure (SMILES): CC(C)N(C(=O)n1oc(=O)n(CC(C)(C)C)c1=O)c1ccc(F)cc1 [Compound 246]
- Morningglory plant response rating (morningglory; [5]): 0
- Morningglory plant response rating (morningglory; [6]): 0
- Plant response rating, Morningglory (morningglory; [7]): 0
- Morningglory plant response rating (morningglory; [8]): 0
- Plant response rating (0 to 10; 0 is no effect, 10 is complete control), Morningglory (morningglory; Rate 250 g/ha, Postemergence): 9
- Morningglory plant response rating (morningglory; [9]): 9
- Redroot pigweed plant response rating (pigweed; [5]): 0
- Redroot pigweed plant response rating (pigweed; [6]): 0
- Plant response rating, Redroot pigweed (pigweed; [7]): 3
- Redroot pigweed plant response rating (pigweed; [8]): 0
- Plant response rating (0 to 10; 0 is no effect, 10 is complete control), Redroot pigweed (pigweed; Rate 250 g/ha, Postemergence): 2
- Redroot pigweed plant response rating (pigweed; [9]): 3
- Wild oats plant response rating (wild oat [1]; [5]): 2
- Wild oats plant response rating (wild oat [1]; [6]): 6
- Plant response rating, Wild oats (wild oat [1]; [7]): 8
- Wild oats plant response rating (wild oat [1]; [8]): 3
- Wild oats plant response rating (wild oat [1]; [9]): 0
- Plant response rating, Wheat (winter) (winter wheat [2]; [10]): 0
- Wheat (winter) plant response rating (winter wheat [2]; Rate 250 g/ha, 0 to 100 scale where 0 is no effect and 100 is complete control): 0
- Plant response rating, Wheat (winter) (winter wheat [2]; Rate 500 g/ha, 0 to 100 scale, 0 is no effect, 100 is complete control): 0
- Blackgrass plant response rating (0 to 100 scale) (blackgrass; Rate 250 g/ha): 60
- Plant response rating, Blackgrass (blackgrass; [11]): 100
- Plant response rating, Blackgrass (blackgrass; [12]): 100
- Green foxtail plant response rating (0 to 100 scale) (green foxtail; Rate 250 g/ha): 100
- Plant response rating, Green foxtail (green foxtail; [11]): 100
- Plant response rating, Green foxtail (green foxtail; [12]): 100
- I. Ryegrass plant response rating (0 to 100 scale) (Italian ryegrass; Rate 250 g/ha): 80
- Plant response rating, I. Ryegrass (Italian ryegrass; [11]): 90
- Plant response rating, I. Ryegrass (Italian ryegrass; [12]): 100
- Wheat (winter) plant response rating (0 to 100 scale) (winter wheat [3]; Rate 250 g/ha): 50
- Plant response rating, Wheat (winter) (winter wheat [3]; [12]): 50
- Wild oat plant response rating (0 to 100 scale) (wild oat [4]; Rate 250 g/ha): 50
- Plant response rating, Wild oat (wild oat [4]; [11]): 65
- Plant response rating, Wild oat (wild oat [4]; [12]): 85
- Barley (winter) plant response rating (0 to 100 scale) (winter barley; Rate 250 g/ha): 40
- Plant response rating, Barley (winter) (winter barley; [11]): 50
- Plant response rating, Barley (winter) (winter barley; [12]): 60

Structure (SMILES): CC(C)N(C(=O)n1oc(=O)n(-c2cnn(C)c2)c1=O)c1ccccc1 [Compound 123]
- Morningglory plant response rating (morningglory; [13]): 9
- Morningglory plant response rating (morningglory; [14]): 0
- Morningglory plant response rating (0 to 10 scale) (morningglory; [15]): 0
- Morningglory plant response rating (morningglory; [16]): 0
- Morningglory plant response rating (morningglory; [17]): 0
- Morningglory plant response rating (morningglory; [18]): 8
- Plant response rating, Morningglory (morningglory; [19]): 10
- Morningglory plant response rating (morningglory; [9]): 10
- Redroot pigweed plant response rating (pigweed; [14]): 0
- Redroot pigweed plant response rating (0 to 10 scale) (pigweed; [15]): 4
- Redroot pigweed plant response rating (pigweed; [16]): 5
- Redroot pigweed plant response rating (pigweed; [17]): 9
- Redroot pigweed plant response rating (pigweed; [18]): 0
- Plant response rating, Redroot pigweed (pigweed; [19]): 2
- Redroot pigweed plant response rating (pigweed; [9]): 2
- Wild oats plant response rating (wild oat [1]; [13]): 0
- Wild oats plant response rating (wild oat [1]; [14]): 0
- Wild oats plant response rating (0 to 10 scale) (wild oat [1]; [15]): 2
- Wild oats plant response rating (wild oat [1]; [16]): 6
- Wild oats plant response rating (wild oat [1]; [17]): 6
- Wild oats plant response rating (wild oat [1]; [18]): 0
- Plant response rating, Wild oats (wild oat [1]; [19]): 0
- Wild oats plant response rating (wild oat [1]; [9]): 2
- Plant response rating, Wheat (winter) (winter wheat [2]; Rate 250 g/ha, 0 to 100 scale (0 no effect, 100 complete control)): 55
- Plant response rating, Wheat (winter) (winter wheat [2]; Rate 1000 g/ha, 0 to 100 scale, 0 is no effect and 100 is complete control): 65
- Plant response rating, Blackgrass (blackgrass; Rate 250 g/ha, 0 to 100 scale): 30
- Plant response rating, Blackgrass (blackgrass; [10]): 65
- Plant response rating, Green foxtail (green foxtail; Rate 250 g/ha, 0 to 100 scale): 20
- Plant response rating, Green foxtail (green foxtail; [10]): 40
- Plant response rating, I. Ryegrass (Italian ryegrass; Rate 250 g/ha, 0 to 100 scale): 40
- Plant response rating, I. Ryegrass (Italian ryegrass; [10]): 50
- Plant response rating, Wheat (winter) (winter wheat [3]; Rate 250 g/ha, 0 to 100 scale): 10
- Plant response rating, Wheat (winter) (winter wheat [3]; [10]): 20
- Plant response rating, Wild oat (wild oat [4]; [10]): 55
- Plant response rating, Barley (winter) (winter barley; Rate 250 g/ha, 0 to 100 scale): 30
- Plant response rating, Barley (winter) (winter barley; [10]): 50

Source: US6737383B1, “Herbicidal oxadiazolidines” (priority 1999, dated 2004)
